Experimental data taken from paper PMC9587079, “Bioavailability of inhaled or ingested PFOA adsorbed to house dust” (Environmental Science and Pollution Research International, 2022).
Entries after “also recorded” stand apart in the source; their conditions may differ. Where two headings read alike, the source gives them in different places.

How the values were obtained:
[1] = Vapor concentration of PFOA at outlet of vapor generation chamber; assay type: physicochemical; conditions: room temperature, after 24 h
Description: The gas phase of PFOA was collected with OSHA Versatile Sampling (OVS) tubes with XAD-2 resin (SKC). Samples were collected at a flowrate of 0.04 L/min using vacuum sampling pumps. Collection times were set for 5 min typically for a 200 mL air sample. PFOA from the OVS sampler was extracted prior to analysis into two fractions with each fraction placed into individual PP tubes. Fraction A consisted of the glass or quartz fiber filter and first section of XAD resin beads and the first polyurethane foam (PUF) filter. Fraction B consisted of the second section of XAD resin beads and the back PUF filter. All samples were spiked with 50 μL of 1 μg/mL C13 solution, the surrogate standard. Each section was placed in PP tube to which 5 mL of HPLC-grade methanol was added. The tube was shaken for 60 min on a mechanical flatbed shaker set at ∼2 cycles per second. Approximately 4.5 mL of each extract was transferred to a pre-baked amber glass vial by filtering through a Gelman GHP Acrodisc (Pall Gelman Laboratory, Ann Arbor, MI, USA.). Each extract of consisting of 200 μL was transferred to an autosampler vial with PP insert. […]
The vapor concentration of PFOA (Cpfoa) measured at the outlet of the vapor pressure generation chamber is described in detail in Supplementary Information and shown in Fig. S1. […]

[2] = set-up: method as in Li et al. [2017]; conditions: rats; ref Li et al. [2017]; cited from earlier work
[3] = Sorption of PFOA on house dust in near saturated vapor; assay type: physicochemical; conditions: more than 3 weeks
Description: To achieve a sufficient concentration of PFOA on the house dust, a saturated vapor concentration procedure was created to adsorb/absorb PFOA on the house dust. This was done to ensure detectability in the tissue samples. Ten grams of solid pure perfluorooctanoic acid was placed in a glass jar bottle, capped with a lid, shaken and stored at room temperature (25 ± 0.1 °C) to allow vaporization and pre-equilibration of PFOA on the walls of the glass jars. Following equilibration of PFOA in the air and on walls of jars, a portion of 5 ± 0.03 g dust was placed in a polypropylene (PP) round plate inside each of four jars. These were capped and kept under the controlled room temperature and atmospheric pressure over time, mimicking a residential indoor environment, but with a saturated vapor of PFOA. Repeated samples of dust were withdrawn from the jars over time and analyzed for the PFOA content. This procedure was repeated over time for up to 6 weeks until a stable equilibrium concentration of PFOA was attained adsorbed to the dust. […]
During the adsorption process, the concentration of PFOA adsorbed to the dust was periodically measured after a rotatory mixing of dust samples with a tube rotator or 24 h prior to the extraction procedures and instrumental analysis. […]

[4] = PFOA in terminal plasma, lung lavage and tissues 48 h after dust exposure; assay type: in vivo, rat; conditions: for Kp at 48 h / concentration at 48 h: male, RccHan:WIST, rat
[5] = PFOA in plasma over time after inhalation or gavage of PFOA-coated house dust; assay type: in vivo, rat; conditions: for Cmax: male, RccHan:WIST, rat, plasma
[6] = cited from earlier work
[7] = set-up: method as in Iwabuchi et al. [2017]; conditions: oral 100 μg/kg bw, male rats, ref Iwabuchi et al. [2017], cited from earlier work
[8] = set-up: method as in Li et al. [2017]; conditions: humans, calculated; ref Li et al. [2017]; cited from earlier work

## O=C(O)C(F)(F)C(F)(F)C(F)(F)C(F)(F)C(F)(F)C(F)(F)C(F)(F)F [PFOA, Perfluorooctanoic acid]
[1]
  Stable (saturation) vapor concentration of PFOA: 1.37e-05 µg/L
[2]
  Half-time: a few days
[3]
  Steady state concentration of PFOA on house dust: 0.335 g/g coated dust
[4]; 48 h, inhalation
  Liver:plasma ratio of PFOA concentration: 5.28 ± 1.3
[4]; 48 h, oral gavage
  Kidney:plasma ratio of PFOA concentration: 1.72 ± 0.3
  Liver:plasma ratio of PFOA concentration: 4.89 ± 1.0
[4]; 48 h post exposure
  Levels of PFOA in plasma, liver and kidney, inhalation compared to oral: twice as high
[4]; kidney, 48 h, inhalation
  PFOA concentration: 3.84 ± 0.8 µg/g
[4]; kidney, 48 h, oral gavage
  PFOA concentration: 3.15 ± 0.2 µg/g
[4]; liver, 48 h, inhalation
  PFOA concentration: 10.1 ± 0.9 µg/g
[4]; liver, 48 h, oral gavage
  PFOA concentration: 8.94 ± 0.5 µg/g
[4]; lung, 48 h, inhalation
  PFOA concentration: 31.3 ± 4.0 µg/g
[4]; lung, 48 h, oral gavage
  PFOA concentration: 1.68 ± 0.3 µg/g
[4]; kidney, 364 μg PFOA/kg BW, 48 h, oral gavage, read-out: Kidney:plasma ratio of PFOA concentration
  Kp at 48 h: 1.72
[4]; kidney, inhaled, 164 μg PFOA/kg BW, kidney, 48 h, inhalation
  concentration at 48 h: 3840 ± 760 ng/g
[4]; kidney, inhaled, 164 μg PFOA/kg BW, 48 h, inhalation, read-out: Kidney:plasma ratio of PFOA concentration
  Kp at 48 h: 2.02 ± 0.7
[4]; kidney, po, 364 μg PFOA/kg BW, kidney, 48 h, oral gavage
  concentration at 48 h: 3150 ± 190 ng/g
[4]; liver, 364 μg PFOA/kg BW, 48 h, oral gavage, read-out: Liver:plasma ratio of PFOA concentration
  Kp at 48 h: 4.89
[4]; liver, inhaled, 164 μg PFOA/kg BW, liver, 48 h, inhalation
  concentration at 48 h: 10100 ± 880 ng/g
[4]; liver, inhaled, 164 μg PFOA/kg BW, 48 h, inhalation, read-out: Liver:plasma ratio of PFOA concentration
  Kp at 48 h: 5.28
[4]; liver, po, 364 μg PFOA/kg BW, liver, 48 h, oral gavage
  concentration at 48 h: 8940 ± 500 ng/g
[4]; lung lavage (BALF), inhaled, 164 μg PFOA/kg BW, lung lavage, 48 h, inhalation
  concentration at 48 h: 9980 ± 630 ng/mL
[4]; lung lavage (BALF), po, 364 μg PFOA/kg BW, lung lavage, 48 h, oral gavage
  concentration at 48 h: 310 ± 20 ng/mL
[4]; lung, inhaled, 164 μg PFOA/kg BW, lung, 48 h, inhalation
  concentration at 48 h: 31300 ± 4000 ng/g
[4]; lung, po, 364 μg PFOA/kg BW, lung, 48 h, oral gavage
  concentration at 48 h: 1680 ± 310 ng/g
[4]; plasma, inhaled, 164 μg PFOA/kg BW, terminal plasma, 48 h, inhalation of PFOA-coated dust (164 μg PFOA/kg BW)
  concentration at 48 h: 2030 ± 320 ng/mL
[4]; plasma, po, 364 μg PFOA/kg BW, terminal plasma, 48 h, oral gavage of PFOA-coated dust (364 μg PFOA/kg BW)
  concentration at 48 h: 1870 ± 350 ng/mL
[4]; post exposure
  Distribution of PFOA to liver and kidney, inhalation compared to oral gavage: ~2.5 times
[4]; terminal plasma, 48 h, inhalation of PFOA-coated dust (164 μg PFOA/kg BW)
  PFOA concentration: 1.97 ± 0.32 ng/µL
[5]; inhaled or intranasal, inhalation group, n = 4, 164 μg PFOA/kg BW
  Cmax: 3100 ± 320 ng/mL
[5]; oral gavage group, n = 4, 364 μg PFOA/kg BW
  Cmax: 1730 ± 170 ng/mL
[5]; oral gavage group
  Time of Cmax post exposure: 3 h
[5]; same deposition level of exposure
  Plasma PFOA (Cmax, 3 h) following inhalation compared to oral exposure: almost four times higher; also recorded: approximately four times higher
[6]; oral exposure in animal studies, ammonium salt: APFO, ref DeWitt. [2015]
  Absorption over the gastrointestinal tract: virtually all of it was absorbed
[6]; oral exposure, ref US EPA [2016], Pizzurro et al. [2019], DeWitt. [2015]
  Delivered dose absorbed over the gastro intestinal: more than 90%
[7]; at Cmax (12 h)
  Liver to serum ratio: 1.67
[7]
  Kidney to serum ratio: 0.82
[8]
  Half-time: 2.3–8.5 years
